Test results as given in patent publication US7858621B2 (Amorepacific Corporation, priority 2006, dated 2010).

Molecular target: T1, vanilloid receptor (Rattus norvegicus, UniProt O35433)
T1 construct: DRG nerve cells from the primary culture of 2 days were equilibrated; endogenous in cells; host or cells: primary culture of dorsal root ganglion neurons from neonatal SD rats
Assay: 45Ca influx test in cultured neonatal rat DRG neurons, inhibition of capsaicin response
Assay type: cell-based
Conditions: neonatal rat DRG neurons, capsaicin 0.5 μM, 45Ca influx; read-out: Antagonist Calcium Uptake Test (IC50)
Procedure: 1) Separation of Spinal Dorsal Root Ganglia (DRG) in Newborn Rats and Primary Culture Thereof
Neonatal (2-3 day old or younger than 2-3 day old) SD rats were put in ice for 5 minutes to anesthetize and disinfected with 70% ethanol. […] The DRG were incubated sequentially at 37° C. for 30 mins in 200 U/ml collagenase and 2.5 mg/ml trypsin, separately. The ganglia were washed twice with DME/F12 medium supplemented with 10% horse serum, triturated through a fire-polished Pasteur pipette, filtered through Nitex 80 membrane to obtain single cell suspension and the suspension was washed once more. This was subjected to centrifugation, then resuspended in cell culture medium at certain level of cell density. As the cell culture medium, DME/F12 medium supplemented with 10% horse serum was diluted with identical medium conditioned by C6 glioma cells 2 days on a confluent monolayer (1:1), and NGF (Nerve Growth Factor) was added to adjust 200 ng/ml as final concentration. After the cells were grown 2 days in medium where cytosine arabinoside (Ara-C, 100 μM) was added to kill dividing nonneuronal cells, medium was changed to one without Ara-C. The resuspended cells were plated at a density of 1500-2000 neurons/well onto Terasaki plates previously coated with 10 μg/ml poly-D-ornithine.
2) ^45Ca Influx Experiments
DRG nerve cells from the primary culture of 2 days were equilibrated by washing 4 times with HEPES (10 mM, pH 7.4)-buffered Ca^2+, Mg^2+-free HBSS (H-HBSS). The solution in each well was removed from the individual well. Medium containing the test compound plus capsaicin (final concentration 0.5 μM) and ^45Ca (final concentration 10 μCi/ml) in H-HBSS was added to each well and incubated at room temperature for 10 mins. Terasaki plates were washed five times with H-HBSS and dried at room temperature. To each well, 0.3% SDS (10 μl) was added to elute ^45Ca. After the addition of scintillation cocktail of into each well, the amount of ^45Ca influx into neuron was measured by counting radioactivity.

T1 sequence (O35433 whole entry): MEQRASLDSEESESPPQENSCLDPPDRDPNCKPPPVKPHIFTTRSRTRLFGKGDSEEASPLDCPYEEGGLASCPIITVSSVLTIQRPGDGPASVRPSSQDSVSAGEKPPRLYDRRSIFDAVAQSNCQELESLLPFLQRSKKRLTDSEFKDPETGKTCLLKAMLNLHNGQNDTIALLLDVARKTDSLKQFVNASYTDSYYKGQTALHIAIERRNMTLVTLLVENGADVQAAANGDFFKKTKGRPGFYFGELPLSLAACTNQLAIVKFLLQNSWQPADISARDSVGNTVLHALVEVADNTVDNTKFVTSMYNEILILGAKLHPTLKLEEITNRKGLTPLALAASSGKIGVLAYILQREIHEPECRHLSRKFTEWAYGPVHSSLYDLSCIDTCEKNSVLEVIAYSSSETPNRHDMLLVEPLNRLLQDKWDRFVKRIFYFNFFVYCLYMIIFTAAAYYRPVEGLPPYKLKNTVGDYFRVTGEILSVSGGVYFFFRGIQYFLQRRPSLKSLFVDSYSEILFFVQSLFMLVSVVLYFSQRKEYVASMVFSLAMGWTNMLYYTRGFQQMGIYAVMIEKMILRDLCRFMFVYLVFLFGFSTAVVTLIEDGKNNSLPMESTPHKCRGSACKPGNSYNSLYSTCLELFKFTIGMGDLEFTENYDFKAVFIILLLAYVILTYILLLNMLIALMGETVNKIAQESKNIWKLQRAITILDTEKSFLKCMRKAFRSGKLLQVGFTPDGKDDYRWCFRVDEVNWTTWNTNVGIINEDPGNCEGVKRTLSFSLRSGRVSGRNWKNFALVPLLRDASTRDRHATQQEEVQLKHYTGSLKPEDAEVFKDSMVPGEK

## CS(=O)(=O)Nc1c(F)cc(CNC(=O)/C=C/c2ccc(C(F)(F)F)nc2N2CCCC2)cc1C#N [Example 97, N-(3-Cyano-5-fluoro-4-methanesulfonylamino-benzyl)-3-(2-pyrrolidin-1-yl-6-trifluoromethyl-pyridin-3-yl)-acrylamide]
  IC50: 290 nM

## CCCCNc1nc(C(F)(F)F)ccc1/C=C/C(=O)NCc1cc(F)c(NS(C)(=O)=O)c(F)c1 [Example 202, N-(3,5-Difluoro-4-methanesulfonylamino-benzyl)-3-(2-butylamino-6-trifluoromethyl)-pyridin-3-yl-acrylamide]
  IC50: 35 nM

## CC(C)CCOc1nc(C(F)(F)F)ccc1/C=C/C(=O)NCc1cc(F)c(NS(C)(=O)=O)c(C#N)c1 [Example 118, N-(3-Cyano-5-fluoro-4-methanesulfonylamino-benzyl)-3-[2-(3-methyl-butoxy)-6-trifluoromethyl-pyridin-3-yl]-acrylamide]
  IC50: 200 nM

## C#Cc1cc(CNC(=O)/C=C/c2ccc(C(F)(F)F)nc2CCCC)cc(F)c1NS(C)(=O)=O [Example 144, 3-(2-Butyl-6-trifluoromethyl-pyridin-3-yl)-N-(3-ethynyl-5-fluoro-4-methanesulfonylamino-benzyl)-acrylamide]
  IC50: 33 nM

## CS(=O)(=O)Nc1c(F)cc(CNC(=O)/C=C/c2ccc(C(F)(F)F)nc2Nc2ccccc2)cc1C#N [Example 128, N-(3-Cyano-5-fluoro-4-methanesulfonylamino-benzyl)-3-(2-phenylamino-6-trifluoromethyl-pyridin-3-yl)-acrylamide]
  IC50: 600 nM

## CS(=O)(=O)Nc1ccc(CNC(=O)/C=C/c2ccc(C(F)(F)F)nc2N2CCC(O)C2)cc1F (centres unmarked) [Example 56, N-(3-Fluoro-4-methanesulfonylamino-benzyl)-3-[2-(3-hydroxy-pyrrolidin-1-yl)-6-trifluoromethyl-pyridin-3-yl]-acrylamide]
  IC50: > 10000 nM

## CS(=O)(=O)Nc1ccc(CNC(=O)/C=C/c2cccnc2N2CCOCC2)cc1F [Example 50, N-(5-fluoro-4-methanesulfonylamino-benzyl)-3-(2-morpholin-4-yl-pyridin-3-yl)-acrylamide]
  IC50: > 10000 nM

## C[C@@H](NC(=O)/C=C/c1ccc(C(F)(F)F)nc1N1CCCCC1)c1ccc(NS(C)(=O)=O)c(F)c1 [Example 183, (R)—N-[1-(3-Fluoro-4-methanesulfonylamino-phenyl)-ethyl]-3-(2-piperid-1-yl-6-trifluoromethyl-pyridin-3-yl)-acrylamide]
  IC50: 220 nM

## CC(C)(C)c1ccc(/C=C/C(=O)NCc2ccc(NS(C)(=O)=O)c(Cl)c2)cn1 [Examples 2]
  IC50: 1300 nM

## C#Cc1cc(CNC(=O)/C=C/c2ccc(C(F)(F)F)nc2OCC(F)(F)F)cc(F)c1NS(C)(=O)=O [Example 84, N-(3-Ethynyl-5-fluoro-4-methansulfonylamino-benzyl)-3-[2-(2,2,2-trifluoro-ethoxy)-6-trifluoromethyl-pyridin-3-yl]-acrylamide]
  IC50: 240 nM

## CCCNc1nc(C(F)(F)F)ccc1/C=C/C(=O)NCc1ccc(NS(C)(=O)=O)c(C)c1 [Example 225, N-(4-Methanesulfonylamino-3-methyl-benzyl)-3-(2-propylamino-6-trifluoromethyl-pyridin-3-yl)-acrylamide]
  IC50: 52 nM

## CCCCc1nc(C(F)(F)F)ccc1/C=C/C(=O)NCc1ccc(NS(C)(=O)=O)c(C)c1 [Example 194, 3-(2-Butyl-6-trifluoromethyl-pyridin-3-yl)-N-(4-methanesulfonylamino-3-methyl-benzyl)-acrylamide]
  IC50: 76 nM

## C#Cc1cc(CNC(=O)/C=C/c2ccc(C(F)(F)F)nc2COCC)cc(F)c1NS(C)(=O)=O [Example 161, N-(3-Ethynyl-5-fluoro-4-methanesulfonylamino-benzyl)-3-(2-ethoxymethyl-6-trifluoromethyl-pyridin-3-yl)-acrylamide]
  IC50: 550 nM

## CS(=O)(=O)Nc1ccc(CNC(=O)/C=C/c2ccc(C(F)(F)F)nc2Oc2cccnc2)cc1F [Example 81, N-(3-Fluoro-4-methanesulfonylamino-benzyl)-3-[2-(pyridin-3-yloxy)-6-trifluoromethyl-pyridin-3-yl]-acrylamide]
  IC50: 11900 nM

## CCCCc1nc(C(F)(F)F)ccc1/C=C/C(=O)NCc1ccc(NS(C)(=O)=O)c(F)c1 [Example 143, 3-(2-Butyl-6-trifluoromethyl-pyridin-3-yl)-N-(3-fluoro-4-methanesulfonylamino-benzyl)-acrylamide]
  IC50: 200 nM

## CS(=O)(=O)Nc1ccc(CNC(=O)/C=C/c2ccc(C(F)(F)F)nc2OC2CCOC2)cc1F (centres unmarked) [Example 104, 3-[2-(Tetrahydro-furan-3-yloxy)-6-trifluoromethyl-pyridin-3-yl]-N-(3-fluoro-4-methanesulfonylamino-benzyl)-acrylamide]
  IC50: 1600 nM

## CCCc1nc(C(F)(F)F)ccc1/C=C/C(=O)NCc1cc(F)c(NS(C)(=O)=O)c(F)c1 [Example 207, N-(3,5-Difluoro-4-methanesulfonylamino-benzyl)-3-(2-propyl-6-trifluoromethyl-pyridin-3-yl)-acrylamide]
  IC50: 140 nM

## CC(C)(C)c1ccc(/C=C/C(=O)NCc2ccc(NS(C)(=O)=O)c(F)c2)c(Br)n1 [Example 36, 3-(2-Bromo-6-tert-butyl-pyridin-3-yl)-N-(3-fluoro-4-methanesulfonylamino-benzyl)-acrylamide]
  IC50: 180 nM

## C#Cc1cc(CNC(=O)/C=C/c2ccc(C(F)(F)F)nc2-c2cccc(OC)c2)cc(F)c1NS(C)(=O)=O [Example 125, N-(3-Ethynyl-5-fluoro-4-methanesulfonylamino-benzyl)-3-[2-(3-methoxy-phenyl)-6-trifluoromethyl-pyridin-3-yl]-acrylamide]
  IC50: > 1000 nM

## CC(C)Nc1nc(C(F)(F)F)ccc1/C=C/C(=O)N[C@H](C)c1cc(F)c(NS(C)(=O)=O)c(F)c1 [Example 227, (R)—N-[1-(3,5-Difluoro-4-methanesulfonylamino-phenyl)-ethyl]-3-(2-isopropylamino-6-trifluoromethyl-pyridin-3-yl)-acrylamide]
  IC50: 19 nM

## CCCc1nc(C(F)(F)F)ccc1/C=C/C(=O)NCc1ccc(NS(C)(=O)=O)c(C)c1 [Example 208, N-(4-Methanesulfonylamino-3-methyl-benzyl)-3-(2-propyl-6-trifluoromethyl-pyridin-3-yl)-acrylamide]
  IC50: 49 nM

## 2-(2-piperid-1-yl-6-chloro-pyridinyl-3-yloxy)-N-(3-fluoro-4-methanesulfonylamino-benzyl)-acetamide [Example 13]
  IC50: 3500 nM

## CCCCNc1nc(C(F)(F)F)ccc1/C=C/C(=O)N[C@H](C)c1ccc(NS(C)(=O)=O)c(F)c1 [Example 213, (R)—N-[1-(3-Fluoro-4-methanesulfonylamino-phenyl)-ethyl]-3-(2-butylamino)-6-trifluoromethyl-pyridin-3-yl-acrylamide]
  IC50: 28 nM

## O=C(/C=C/c1ccc(C(F)(F)F)nc1CCc1ccccc1)NCc1ccc(NS(=O)(=O)C(F)(F)F)cc1 [Example 279, 3-(2-Phenethyl-6-trifluoromethyl-pyridin-3-yl)-N-(4-trifluoromethanesulfonylamino-benzyl)-acrylamide]
  IC50: 3900 nM

## CCCNc1nc(C(F)(F)F)ccc1/C=C/C(=O)N[C@H](C)c1cc(F)c(NS(C)(=O)=O)c(F)c1 [Example 229, (R)—N-[1-(3,5-Difluoro-4-methanesulfonylamino-phenyl)-ethyl]-3-(2-propylamino-6-trifluoromethyl-pyridin-3-yl)-acrylamide]
  IC50: 15 nM

## C#Cc1cc(CNC(=O)/C=C/c2ccc(C(F)(F)F)nc2C)cc(F)c1NS(C)(=O)=O [Example 68, N-(3-Ethynyl-5-fluoro-4-methanesulfonylaminobenzyl)-3-(2-methyl-6-trifluoromethylpyridin-3-yl)acrylamide]
  IC50: 1300 nM

## CCNc1nc(C(F)(F)F)ccc1/C=C/C(=O)N[C@H](C)c1ccc(NS(C)(=O)=O)c(F)c1 [Example 246, N-[1-(3-Fluoro-4-methanesulfonylamino-phenyl)-ethyl]-3-(2-ethylamino)-6-trifluoromethyl-pyridin-3-yl-acrylamide]
  IC50: 10 nM

## C#Cc1cc(CNC(=O)CCc2ccc(C(F)(F)F)nc2N2CCCC2)cc(F)c1NS(C)(=O)=O [Example 91, N-(3-Ethynyl-5-fluoro-4-methanesulfonylamino-benzyl)-3-(2-pyrrolidin-1-yl-6-trifluoromethyl-pyridin-3-yl)-propionamide]
  IC50: 580 nM

## C#Cc1cc(CNC(=O)/C=C/c2ccc(C(F)(F)F)nc2C(C)C)cc(F)c1NS(C)(=O)=O [Example 231, N-(3-Ethynyl-5-fluoro-4-methanesulfonylamino-benzyl)-3-(2-isopropyl-6-trifluoromethyl-pyridin-3-yl)-acrylamide]
  IC50: 76 nM
